Source: PubChem BioAssay AID330 (DTP/NCI, 2004)
Where “and” joins values, the source holds several entries; their conditions need not be identical. Identical values can stand only once. Inconclusive results and toxic doses are left out. Rule for the calls: active = survival T/C of 150% or more; inactive = T/C below 125% in these data.

System: P388 leukemia ip, CD2F1 mice, survival T/C
Experiment: NCI In Vivo Anticancer Drug Screen. Data for tumor model P388 Leukemia (intraperitoneal) in CD2F1 (CDF1) mice
Details: endpoint: median survival time, higher = longer survival
How it was run: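 Mice carrying the transplanted tumor received test compound or vehicle. Survival was recorded in each group, and the value is the treated-group measurement divided by that of the vehicle-treated control group.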

[1] = dose: 50.0 mg/kg/injection, schedule: Q01DX005 (ip), vehicle: saline with Tween-80
[2] = dose: 100.0 mg/kg/injection, schedule: Q01DX005 (ip), vehicle: saline with Tween-80
[3] = dose: 200.0 mg/kg/injection, schedule: Q01DX005 (ip), vehicle: saline with Tween-80
[4] = dose: 50.0 mg/kg/injection, schedule: Q01DX009 (ip), vehicle: saline with Tween-80
[5] = dose: 100.0 mg/kg/injection, schedule: Q01DX009 (ip), vehicle: saline with Tween-80
[6] = dose: 200.0 mg/kg/injection, schedule: Q01DX009 (ip), vehicle: saline with Tween-80
[7] = dose: 50.0 mg/kg/injection, schedule: Q01DX005 (ip), vehicle: Klucel (hydroxypropylcellulose) (HPC)
[8] = dose: 100.0 mg/kg/injection, schedule: Q01DX005 (ip), vehicle: Klucel (hydroxypropylcellulose) (HPC)
[9] = dose: 200.0 mg/kg/injection, schedule: Q01DX005 (ip), vehicle: Klucel (hydroxypropylcellulose) (HPC)
[10] = dose: 60.0 mg/kg/injection, schedule: Q01DX005 (ip), vehicle: saline with Tween-80
[11] = dose: 120.0 mg/kg/injection, schedule: Q01DX005 (ip), vehicle: saline with Tween-80
[12] = dose: 240.0 mg/kg/injection, schedule: Q01DX005 (ip), vehicle: saline with Tween-80
[13] = dose: 50.0 mg/kg/injection, schedule: Q04DX003 (ip), vehicle: saline with Tween-80
[14] = dose: 100.0 mg/kg/injection, schedule: Q04DX003 (ip), vehicle: saline with Tween-80

Measured: T/C

CC(C)NC(=O)c1ccc(CBr)cc1
inactive: dose: 1.56 mg/kg/injection, schedule: Q01DX009 (ip), vehicle: other 95 % of control | dose: 3.13 mg/kg/injection, schedule: Q01DX009 (ip), vehicle: other 95 % of control | dose: 6.25 mg/kg/injection, schedule: Q01DX009 (ip), vehicle: other 98 % of control | dose: 12.5 mg/kg/injection, schedule: Q01DX009 (ip), vehicle: other 93 % of control | dose: 25.0 mg/kg/injection, schedule: Q01DX009 (ip), vehicle: other 112 % of control | dose: 50.0 mg/kg/injection, schedule: Q01DX009 (ip), vehicle: other 99 % of control

CC1=CCC[C@@H]2C1(C)CCC(C)[C@@]2(C)CC1=CC(=O)C=CC1=O (some centres undefined)
inactive: dose: 0.62 mg/kg/injection, schedule: Q01DX005 (ip), vehicle: saline with Tween-80 99 % of control | dose: 1.25 mg/kg/injection, schedule: Q01DX005 (ip), vehicle: saline with Tween-80 103 % of control | dose: 2.5 mg/kg/injection, schedule: Q01DX005 (ip), vehicle: saline with Tween-80 99 % of control | dose: 5.0 mg/kg/injection, schedule: Q01DX005 (ip), vehicle: saline with Tween-80 98 % of control | dose: 10.0 mg/kg/injection, schedule: Q01DX005 (ip), vehicle: saline with Tween-80 103 % of control

COc1ccc(N=C(Cl)c2ccc(Br)cc2)cc1
inactive: [1] 97 % of control | [2] 96 % of control | [3] 96 % of control

CCOP(O)(=S)OCC.[Ce]
inactive: dose: 100.0 mg/kg/injection, schedule: Q04DX003 (ip), vehicle: Klucel (hydroxypropylcellulose) (HPC) 99 % of control | dose: 200.0 mg/kg/injection, schedule: Q04DX003 (ip), vehicle: Klucel (hydroxypropylcellulose) (HPC) 100 % of control | dose: 400.0 mg/kg/injection, schedule: Q04DX003 (ip), vehicle: Klucel (hydroxypropylcellulose) (HPC) 93 % of control

Cc1cccc2ncc([N+](=O)[O-])n12
inactive: [4] 114 % of control and 88 % of control | [5] 102 % of control and 89 % of control

Oc1c(Br)cc(Br)c2ccccc12
inactive: [5] 105 % of control | [6] 114 % of control | dose: 400.0 mg/kg/injection, schedule: Q01DX009 (ip), vehicle: saline with Tween-80 111 % of control

O=C(O)C[N-]CC(=O)O.OO.[O]=[V]
inactive: dose: 3.75 mg/kg/injection, schedule: Q01DX005 (ip), vehicle: saline with Tween-80 102 % of control | dose: 7.5 mg/kg/injection, schedule: Q01DX005 (ip), vehicle: saline with Tween-80 105 % of control | dose: 15.0 mg/kg/injection, schedule: Q01DX005 (ip), vehicle: saline with Tween-80 112 % of control | dose: 30.0 mg/kg/injection, schedule: Q01DX005 (ip), vehicle: saline with Tween-80 120 % of control

NC(=O)N=C(N)N
inactive: [7] 106 % of control | [8] 98 % of control | [9] 101 % of control and 106 % of control

COC(=O)C1=C[C@H]2O[C@H]2[C@H](O)C1
inactive: dose: 1.5 mg/kg/injection, schedule: Q01DX005 (ip), vehicle: Klucel (hydroxypropylcellulose) (HPC) 100 % of control | dose: 3.0 mg/kg/injection, schedule: Q01DX005 (ip), vehicle: Klucel (hydroxypropylcellulose) (HPC) 106 % of control | dose: 6.0 mg/kg/injection, schedule: Q01DX005 (ip), vehicle: Klucel (hydroxypropylcellulose) (HPC) 101 % of control | dose: 12.0 mg/kg/injection, schedule: Q01DX005 (ip), vehicle: Klucel (hydroxypropylcellulose) (HPC) 100 % of control

C=CCN=C(NC(C)(C)C)c1ccccc1
inactive: [7] 107 % of control | [8] 96 % of control

CNC(=O)C1CCCCC1Br (centres undefined)
inactive: [7] 103 % of control | [8] 103 % of control | [9] 105 % of control

CC1Cn2c(c(-c3ccccc3)c(=O)[nH]c2=S)O1 (centres undefined)
inactive: [4] 100 % of control | [5] 98 % of control | [6] 91 % of control

COc1cc(C)c2nc3c(C)c(Cl)ccc3c(Cl)c2c1
inactive: dose: 3.0 mg/kg/injection, schedule: Q01DX005 (ip), vehicle: Klucel + Tween-80 98 % of control | dose: 6.0 mg/kg/injection, schedule: Q01DX005 (ip), vehicle: Klucel + Tween-80 100 % of control | dose: 12.0 mg/kg/injection, schedule: Q01DX005 (ip), vehicle: Klucel + Tween-80 97 % of control | dose: 50.0 mg/kg/injection, schedule: Q01DX005 (ip), vehicle: Klucel + Tween-80 88 % of control

CC12CCC(=O)N1c1ccccc1N2 (centres undefined)
inactive: [10] 98 % of control | [11] 94 % of control | [12] 102 % of control

c1ccc2c(-c3nc4ccccc4c4ccccc34)cccc2c1
inactive: [1] 108 % of control | [2] 108 % of control | [3] 95 % of control

CS(C)=NC(=Nc1ccccc1)c1ccccc1
inactive: [13] 101 % of control | [14] 104 % of control

C=CC1CC/C(=C/C)C(=O)O1 (centres undefined)
inactive: [13] 103 % of control | [14] 100 % of control | dose: 200.0 mg/kg/injection, schedule: Q04DX003 (ip), vehicle: saline with Tween-80 100 % of control

O=c1/c(=C/C=C/c2ccccc2)sc2nc3ccccc3n12
inactive: [1] 107 % of control | [2] 106 % of control | [3] 92 % of control

COc1cc2c(cc1C[N+](C)(C)CSc1ccccc1)-c1ccccc1CC2
inactive: dose: 1.25 mg/kg/injection, schedule: Q01DX005 (ip), vehicle: DMSO 108 % of control | dose: 2.5 mg/kg/injection, schedule: Q01DX005 (ip), vehicle: DMSO 101 % of control | dose: 5.0 mg/kg/injection, schedule: Q01DX005 (ip), vehicle: DMSO 105 % of control

CCCC(O)C(NC(=O)CCl)C(=O)O (centres undefined)
inactive: dose: 12.5 mg/kg/injection, schedule: Q01DX009 (ip), vehicle: saline 105 % of control and 97 % of control | dose: 25.0 mg/kg/injection, schedule: Q01DX009 (ip), vehicle: saline 100 % of control | dose: 50.0 mg/kg/injection, schedule: Q01DX009 (ip), vehicle: saline 104 % of control and 88 % of control | dose: 100.0 mg/kg/injection, schedule: Q01DX009 (ip), vehicle: saline 91 % of control | dose: 200.0 mg/kg/injection, schedule: Q01DX009 (ip), vehicle: saline 86 % of control

CC1(C)OC2OCC(N=[N+]=[N-])C(O)C2O1 (centres undefined)
inactive: [1] 113 % of control | [2] 101 % of control | [3] 92 % of control

CC1(C)OC2C3COC(O3)C(O)C2O1 (centres undefined)
inactive: dose: 100.0 mg/kg/injection, schedule: Q01DX001 (ip), vehicle: saline 107 % of control | dose: 200.0 mg/kg/injection, schedule: Q01DX001 (ip), vehicle: saline 98 % of control | dose: 400.0 mg/kg/injection, schedule: Q01DX001 (ip), vehicle: saline 112 % of control

CC(Cl)S(N)(=O)=O (centres undefined)
inactive: dose: 50.0 mg/kg/injection, schedule: Q01DX005 (ip), vehicle: saline 105 % of control | dose: 100.0 mg/kg/injection, schedule: Q01DX005 (ip), vehicle: saline 98 % of control | dose: 200.0 mg/kg/injection, schedule: Q01DX005 (ip), vehicle: saline 105 % of control

CCOC(=O)CCc1c(-c2ccccc2)[nH]c2ccccc12
inactive: [10] 106 % of control | [11] 107 % of control | [12] 101 % of control

[N-]=[N+]=NC(=O)Nc1ccccc1F
inactive: dose: 3.75 mg/kg/injection, schedule: Q01DX005 (ip), vehicle: Klucel (hydroxypropylcellulose) (HPC) 96 % of control | dose: 7.5 mg/kg/injection, schedule: Q01DX005 (ip), vehicle: Klucel (hydroxypropylcellulose) (HPC) 90 % of control and 97 % of control | dose: 15.0 mg/kg/injection, schedule: Q01DX005 (ip), vehicle: Klucel (hydroxypropylcellulose) (HPC) 104 % of control

N=C(N)SCc1ccc([N+](=O)[O-])cc1
inactive: dose: 25.0 mg/kg/injection, schedule: Q01DX009 (ip), vehicle: Klucel (hydroxypropylcellulose) (HPC) 102 % of control | dose: 50.0 mg/kg/injection, schedule: Q01DX009 (ip), vehicle: Klucel (hydroxypropylcellulose) (HPC) 107 % of control
